Measurements from ChEMBL document CHEMBL1777753, “Discovery of indeno[1,2-c]quinoline derivatives as inhibitors of osteoclastogenesis induced by receptor activator of NF-κB ligand (RANKL)” (J Med Chem, 2011).
Activity calls are given as the source filed them. No cut-off for these calls is given here.

Legend:
RAW264.7 [1] = assay: Inhibition of RANKL-induced osteoclastogenesis in mouse RAW264.7 cells assessed as decrease in TRAP-positive multi-nucleated cells after 5 days; format: functional, cell-based; details: RAW264.7, 120 h
[2] = Cytotoxicity against mouse RAW264.7 cells assessed as cell survival rate at 10 uM by MTT assay; format: cell-based; details: read-out: Survival
RAW264.7 [3] = assay: Ratio of EGCG IC50 for compound IC50 for inhibition of RANKL-induced osteoclastogenesis in mouse RAW264.7 cells; format: functional
RAW264.7 [4] = assay: Inhibition of RANKL-induced osteoclastogenesis in mouse RAW264.7 cells assessed as decrease in TRAP-positive multi-nucleated cells at 10 uM after 5 days; format: functional
A549 = assay: Growth inhibition against human A549 cells; format: functional
[5] = Growth inhibition against human BT-483 cells; format: functional
SAS = assay: Growth inhibition against human SAS cells; format: functional
RAW264.7 [6] = assay: Inhibition of RANKL-induced osteoclastogenesis in mouse RAW264.7 cells; format: functional, cell-based

Question: What does the source list for `O=C1c2cc(O)ccc2-c2c(O)nc3ccccc3c21`?
Answer: IC50 (RAW264.7 [1]): 15.3 µM; viability at 10 µM [2]: 16.8%

Question: Which results are given for `COc1ccc2c(c1)C(=O)c1c-2c(OC)nc2ccccc12`?
Answer: Ratio IC50 (RAW264.7 [3]): 15; IC50 (RAW264.7 [1]): 2 µM; inhibition (RAW264.7 [4]): Active; viability at 10 µM [2]: 100%

Question: With `CNc1nc2ccccc2c2c1-c1ccc(OC)cc1C2=O` as the molecule, how does the IC50 (RAW264.7 [1]) read?
Answer: 5.58 µM

Question: What about the viability at 10 µM [2] of the same molecule?
Answer: 25.9%

Question: For `COc1ccc2c(c1)/C(=N\OCCN1CCCC1)c1c-2c(O)nc2ccccc12`, which GI50 (A549) is on record?
Answer: 0.89 µM

Question: And the GI50 [5]?
Answer: 0.79 µM

Question: What about the GI50 (SAS) of the same molecule?
Answer: 0.84 µM

Question: Which “Ratio IC50” value (RAW264.7 [3]) does the source give for `COc1ccc2c(c1)C(=O)c1c-2cnc2ccccc12` here?
Answer: 20

Question: And the IC50 (RAW264.7 [1])?
Answer: 1.43 µM

Question: And the viability at 10 µM [2]?
Answer: 25.3%

Question: With `C#CCOc1ccc2c(c1)C(=O)c1c-2c(=O)n(CC#C)c2ccccc12` as the molecule, how does the IC50 (RAW264.7 [1]) read?
Answer: > 20 µM

Question: Which results are given for `COc1ccc2c(c1)/C(=N\O)c1c-2c(O)nc2ccccc12`?
Answer: IC50 (RAW264.7 [1]): 9.11 µM; viability at 10 µM [2]: 85.2%

Question: For `CO/N=C1\c2cc(OC)ccc2-c2cnc3ccccc3c21`, which IC50 (RAW264.7 [1]) is on record?
Answer: 4.79 µM

Question: And the viability at 10 µM [2]?
Answer: 55.4%

Question: Which IC50 (RAW264.7 [1]) does the source give for `COc1ccc2c(c1)/C(=N\O)c1c-2cnc2ccccc12` here?
Answer: > 20 µM

Question: With `C=CCn1c(=O)c2c(c3ccccc31)C(=O)c1cc(OC)ccc1-2` as the molecule, how does the IC50 (RAW264.7 [1]) read?
Answer: > 20 µM

Question: With `C=CCOc1ccc2c(c1)C(=O)c1c-2c(=O)n(CC=C)c2ccccc12` as the molecule, how does the IC50 (RAW264.7 [1]) read?
Answer: > 20 µM

Question: Which IC50 (RAW264.7 [1]) does the source give for `COc1ccc2c(c1)C(=O)c1c-2c(O)nc2ccccc12` here?
Answer: > 20 µM

Question: What does the source list for `CC(C)Oc1ccc2c(=O)c(-c3ccccc3)coc2c1` [IPRIFLAVONE]?
Answer: inhibition at 10 µM (RAW264.7 [4]; RAW264.7, 120 h): 31%; viability at 10 µM [2]: 102%

Question: Which IC50 (RAW264.7 [1]) does the source give for `C=CCSc1nc2ccccc2c2c1-c1ccc(OC)cc1C2=O` here?
Answer: 15.6 µM

Question: And the viability at 10 µM [2]?
Answer: 106%

Question: With `CO/N=C1\c2cc(OC)ccc2-c2c(OC)nc3ccccc3c21` as the molecule, how does the IC50 (RAW264.7 [1]) read?
Answer: 7.97 µM

Question: What about the viability at 10 µM [2] of the same molecule?
Answer: 62.3%

Question: What does the source list for `C=CCOc1ccc2c(c1)C(=O)c1c-2c(OCC=C)nc2ccccc12`?
Answer: IC50 (RAW264.7 [1]): 5.7 µM; inhibition (RAW264.7 [4]): Active; viability at 10 µM [2]: 75.1%

Question: Which IC50 (RAW264.7 [6]) does the source give for `Cc1ccc(-n2c(=O)n3n(c2=O)C2C(=CC3)C(C)(C)Oc3cc(O)ccc32)cc1` (configuration not stated) here?
Answer: 6.97 µM

Question: Which IC50 (RAW264.7 [1]) does the source give for `COc1ccc2c(c1)C(=O)c1c-2c(=O)n(C)c2ccccc12` here?
Answer: 11.5 µM

Question: And the viability at 10 µM [2]?
Answer: 66.6%

Question: Which IC50 (RAW264.7 [1]) does the source give for `O=C(O[C@@H]1Cc2c(O)cc(O)cc2O[C@@H]1c1cc(O)c(O)c(O)c1)c1cc(O)c(O)c(O)c1` [EPIGALOCATECHIN GALLATE] here?
Answer: 29.8 µM

Question: For `COc1ccc2c(c1)C(=O)c1c-2c(N)nc2ccccc12`, which IC50 (RAW264.7 [1]) is on record?
Answer: > 20 µM

Question: What does the source list for `C#CCOc1ccc2c(c1)C(=O)c1c-2c(OCC#C)nc2ccccc12`?
Answer: IC50 (RAW264.7 [1]): 9.46 µM; viability at 10 µM [2]: 30.9%

Question: With `CCOc1nc2ccccc2c2c1-c1ccc(OC)cc1C2=O` as the molecule, how does the IC50 (RAW264.7 [1]) read?
Answer: > 20 µM

Question: Which IC50 (RAW264.7 [1]) does the source give for `C=CCOc1nc2ccccc2c2c1-c1ccc(OC)cc1C2=O` here?
Answer: 15.4 µM

Question: And the viability at 10 µM [2]?
Answer: 105%

Question: Which IC50 (RAW264.7 [1]) does the source give for `COc1ccc2c(c1)C(=O)c1c-2c(SC)nc2ccccc12` here?
Answer: 2.58 µM

Question: And the inhibition (RAW264.7 [4])?
Answer: Active

Question: What about the viability at 10 µM [2] of the same molecule?
Answer: 86.6%

Question: For `COc1ccc2c(c1)/C(=N\O)c1c-2c(OC)nc2ccccc12`, which IC50 (RAW264.7 [1]) is on record?
Answer: 8.44 µM

Question: And the viability at 10 µM [2]?
Answer: 46.9%

Question: For `COc1ccc2c(c1)C(=O)c1c-2c(S)nc2ccccc12`, which IC50 (RAW264.7 [1]) is on record?
Answer: 13.8 µM

Question: And the viability at 10 µM [2]?
Answer: 63%

Question: For `CO/N=C1\c2cc(OC)ccc2-c2c(NOC)nc3ccccc3c21`, which IC50 (RAW264.7 [1]) is on record?
Answer: 1.58 µM

Question: And the inhibition (RAW264.7 [4])?
Answer: Active

Question: What about the viability at 10 µM [2] of the same molecule?
Answer: 105%
